US7384934B2, “Piperazine substituted aryl benzodiazepines” (Eli Lilly and Company, priority 2002, dated 2008)
Where a name gives a salt, the structure may show the parent alone. Read-outs that look alike come from different tables or passages of the source.

Experiments:
[1] = biological target: T1, hypothalamic histamine H1 receptors (Rattus norvegicus, UniProt P31390); assay: Histamine H1 ex vivo binding ([3H]-pyrilamine, rat hypothalamic homogenates); assay type: in vivo; conditions: rat hypothalamus; dose required to occupy 50% of histamine H1 receptors; 90 minutes after gavage
T1 construct: from tissue; host or cells: hypothalamus of male Sprague Dawley rats
Experimental: The in vivo potency of a compound to occupy hypothalamic histamine H1 receptors in the rat was determined using a histamine H1 ex vivo binding assay.
(§1) Male Sprague Dawley rats (Harlan Sprague Dawley, Inc., Indianapolis, Ind.) weighing 110 grams were fasted overnight. […] All other compounds were administered at 5 ml/kg in dilute lactic acid. Tissues were dissected, frozen on dry ice and stored at −70° C. prior to analysis.
Ex vivo binding of the histamine H1 antagonist [^3H]-pyrilamine (NEN Life Science Products) to rat hypothalamic homogenates was determined. Tissues were homogenized in 600 μl incubation buffer (50 mM sodium phosphate monobasic, pH 7.4) and pre-incubated 10 minutes at 37° C. to remove endogenous histamine. Triplicate tubes, each containing 100 μl homogenate, were combined with 1 ml buffer containing 3 nM [^3H]-pyrilamine and incubated 30 minutes at 25° C. […] [^3H]-pyrilamine binding was measured after separation filtration using a Brandell cell harvester with GF/C filters which had been soaked in 0.1% polyethylenimine. ED50 values were determined using the Allfit statistical program for displacement binding.

Dopamine D2 receptor = biological target: T2, Dopamine D2 receptor (Homo sapiens, UniProt P14416); assay: Dopamine D2 receptor binding assay ([125I]iodospiperone)
T2 construct: purchased Receptor Biology (now owned by NEN) RBHD2CM

[2] = biological target: T3, human Histamine-1 receptors (Homo sapiens, UniProt P35367); assay: 3H-Pyrilamine SPA binding to human Histamine-1 receptors; conditions: read-out: Receptor affinity (Ki, nM) H1
T3 construct: expressed in transfected cells
Experimental: Their ability of a compound to block histamine H1 receptors can be estimated in vitro by measuring the in vitro histamine H1 receptor affinity. […] The ratio of in vitro histamine H1 receptor affinity divided by the in vitro dopamine D2 receptor affinity, both expressed as Ki's, is an estimate of a compound's likelihood to cause weight gain at therapeutic levels. […] Incubations were performed in a total volume of 200 μl in 96 well assay plates. 50 μl ^3H-pyrilamine (NEN, 20 Ci/mmol, final concentration=3.0 nM) was added to 50 μl of test compounds dissolved in water (±DMSO and/or glacial acetic acid). 50 μl Wheat Germ Agglutinin (WGA) bead, at 1 mg/well, (Amersham Life Sciences) in assay buffer (67 mM TrisCl pH 7.4) were then added. Membrane homogenate from cells expressing human Histamine-1 receptors, approximately 700,000 cells/well, was added last. The plates were covered with sealing tape (FasCal) and allowed to incubate at room temperature for 2 hours. The plates were then centrifuged at approximately 200×g for 10 minutes at room temperature. The amount of ^3H-pyrilamine bound to the membranes, ie proximate to the WGA bead, was then determined using a Wallac MicroBeta Trilux Scintillation Counter (Wallac, Inc.).

dopamine D2 receptors = biological target: T4, dopamine D2 receptors (Rattus norvegicus, UniProt P61169); assay: DOPAC concentrations in rat nucleus accumbens (in vivo D2 receptor blockade); conditions: dose that increases DOPAC to 200% of control, 90 minutes after gavage
T4 construct: from tissue; host or cells: male Sprague Dawley rats, nucleus accumbens (in vivo)
Experimental: Antipsychotics are believed to exert at least part of their therapeutic effects through blockade of the dopamine D2 receptor. The ability of a compound to block dopamine D2 receptors in the rat in vivo was determined by measuring the effect of the compound on the level of DOPAC (3,4-dihydroxyphenylacetic acid), a metabolite of dopamine, in nucleus accumbeus of the rat. Dopamine D2 receptor antagonists increase the release of dopamine into the synapse due to blockade of the dopamine D2 autoreceptor. This increased release of dopamine cannot be directly measured, since the efficiency of the dopamine reuptake system prevents increases in synaptic dopamine concentrations. Instead, increases in the levels of the dopamine metabolites DOPAC (3,4-dihydroxyphenylacetic acid) and HVA (homovanillic acid) reflect increased neuronal dopaminergic activity in vivo.
as §1
Rat nucleus accumbens DOPAC (3,4-dihydroxyphenylacetic acid) concentrations were measured using high-pressure liquid chromatography with electrochemical detection (HPLC-EC). Tissues were sonicated in 1 ml 0.1N TCA. After centrifugation, a 25 µl aliquot of supernatant was injected onto a BDS Hypersyl C18 column (150×4.6 mm, Keystone Scientific). The elution buffer contained 75 mM sodium phosphate monobasic, 0.5 mM EDTA, 350 mg/L 1-octanesulfonate sodium, 7% acetonitrile (v/v) and 0.7% tetrahydrofuran (v/v), pH 3.0. The flow rate was 1.2 ml/min at 40° C. Peak heights were measured at 750 mV at 10 nA sensitivity and compared with samples containing known amounts of DOPAC standards.

[3] = read-out: Receptor affinity (Ki, nM) D2

T2 sequence (P14416 1-414 isoform P14416-2): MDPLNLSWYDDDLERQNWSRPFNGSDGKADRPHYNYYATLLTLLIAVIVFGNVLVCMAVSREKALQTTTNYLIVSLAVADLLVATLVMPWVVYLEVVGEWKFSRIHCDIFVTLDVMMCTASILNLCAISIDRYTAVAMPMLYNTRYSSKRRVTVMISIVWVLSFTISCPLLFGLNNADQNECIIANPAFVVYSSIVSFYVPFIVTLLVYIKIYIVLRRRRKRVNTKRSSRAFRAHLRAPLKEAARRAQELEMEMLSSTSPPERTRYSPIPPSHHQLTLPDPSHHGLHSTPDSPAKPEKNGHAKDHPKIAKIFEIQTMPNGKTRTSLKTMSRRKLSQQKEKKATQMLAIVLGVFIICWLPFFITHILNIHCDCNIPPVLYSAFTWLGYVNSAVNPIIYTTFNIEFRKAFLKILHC
T3 sequence (P35367 whole entry): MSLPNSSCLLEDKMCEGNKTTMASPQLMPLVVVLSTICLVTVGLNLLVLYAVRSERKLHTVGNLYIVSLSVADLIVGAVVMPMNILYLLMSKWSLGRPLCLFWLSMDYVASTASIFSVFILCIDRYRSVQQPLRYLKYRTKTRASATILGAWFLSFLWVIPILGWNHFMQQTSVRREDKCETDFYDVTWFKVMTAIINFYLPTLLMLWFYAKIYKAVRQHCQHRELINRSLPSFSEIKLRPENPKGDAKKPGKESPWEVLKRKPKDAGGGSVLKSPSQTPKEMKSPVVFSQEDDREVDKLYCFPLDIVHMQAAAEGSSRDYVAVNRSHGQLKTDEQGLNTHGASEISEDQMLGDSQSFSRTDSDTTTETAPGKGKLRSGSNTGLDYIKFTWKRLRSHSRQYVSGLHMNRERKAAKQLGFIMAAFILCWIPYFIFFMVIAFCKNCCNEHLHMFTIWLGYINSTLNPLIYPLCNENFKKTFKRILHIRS
T1 sequence (P31390 whole entry): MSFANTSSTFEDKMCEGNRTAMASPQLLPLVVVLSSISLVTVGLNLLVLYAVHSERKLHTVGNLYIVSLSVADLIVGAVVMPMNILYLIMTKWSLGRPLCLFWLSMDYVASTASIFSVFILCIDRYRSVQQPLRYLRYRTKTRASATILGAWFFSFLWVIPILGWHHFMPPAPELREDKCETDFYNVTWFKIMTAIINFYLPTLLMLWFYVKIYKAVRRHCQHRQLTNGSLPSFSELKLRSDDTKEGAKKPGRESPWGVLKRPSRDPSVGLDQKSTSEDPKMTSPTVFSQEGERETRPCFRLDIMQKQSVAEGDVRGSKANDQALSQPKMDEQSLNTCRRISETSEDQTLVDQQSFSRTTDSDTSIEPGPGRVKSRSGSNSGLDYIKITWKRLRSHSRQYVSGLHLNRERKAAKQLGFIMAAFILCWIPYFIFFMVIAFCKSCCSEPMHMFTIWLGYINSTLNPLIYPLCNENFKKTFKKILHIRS
T4 sequence (P61169 whole entry): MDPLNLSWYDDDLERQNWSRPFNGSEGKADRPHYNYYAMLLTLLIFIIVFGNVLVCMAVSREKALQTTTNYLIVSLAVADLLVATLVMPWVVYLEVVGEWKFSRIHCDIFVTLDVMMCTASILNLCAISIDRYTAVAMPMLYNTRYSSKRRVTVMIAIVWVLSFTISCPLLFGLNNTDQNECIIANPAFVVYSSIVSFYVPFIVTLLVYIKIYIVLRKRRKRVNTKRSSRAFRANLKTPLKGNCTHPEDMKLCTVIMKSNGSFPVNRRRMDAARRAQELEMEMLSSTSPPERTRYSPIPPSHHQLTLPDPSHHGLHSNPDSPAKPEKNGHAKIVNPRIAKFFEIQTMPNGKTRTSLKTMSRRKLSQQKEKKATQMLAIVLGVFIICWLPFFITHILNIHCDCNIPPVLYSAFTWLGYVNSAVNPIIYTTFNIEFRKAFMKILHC

In vivo activity H1: H1 ex vivo binding (ED50) [1] | Ki (Dopamine D2 receptor; [3]) [nM] | Ki [2] [nM] | In vivo activity D2: DOPAC elevation (ED200) (dopamine D2 receptors) | Ki (Dopamine D2 receptor; relative Ki scale of Table 5, read-out: Relative D2 Receptor Binding Affinity Ki) [nM] | Structure (SMILES)
>30 mg/kg, po | 11 | 80 | 6.4 mg/kg, po | – | COCC[C@H]1CN(C2=Nc3cc(F)c(F)cc3Nc3sc(C)cc32)CCN1C.Cl.Cl [Example 288, (S)-6,7-Difluoro-10-[3-(2-methoxy-ethyl)-4-methyl-piperazin-1-yl]-2-methyl-4H-3-thia-4,9-diaza-benzo[f]azulene hydrochloride]
>30 mg/kg, po | 6 | 24 | 6 mg/kg, po | – | COCC[C@H]1CN(C2=Nc3ccc(F)cc3Nc3sc(C)cc32)CCN1C [Example 279, (S)-6-Fluoro-10-[3-(2-methoxy-ethyl)-4-methyl-piperazin-1-yl]-2-methyl-4H-3-thia-4,9-diaza-benzo[f]azulene hydrochloride]
>30 mg/kg, po | 13 | 48 | 7.5 mg/kg, po | – | COCC[C@H]1CN(C2=Nc3cc(Cl)ccc3Nc3sc(C)cc32)CCN1C [Example 292, (S)-7-Chloro-10-[3-(2-methoxy-ethyl)-4-methyl-piperazin-1-yl]-2-methyl-4H-3-thia-4,9-diaza-benzo[f]azulene dihydrochloride]
>30 mg/kg, po | 9 | 91 | 4 mg/kg, po | < 10 | COCC[C@H]1CN(C2=Nc3ccccc3Nc3sc(C(C)C)nc32)CCN1C.Cl.Cl [Example 327, (S)-10-[3-(2-Methoxyethyl)-4-methylpiperazin-1-yl]-2-isopropyl-4H-3-thia-1,4,9-triazabenzo[f]azulene dihydrochloride]
